In US7556796B2, “Directed complementation” (AVEO Pharmaceuticals, Inc., priority 2005, dated 2009):

How the values were obtained:
[1] = tested on: propagated tumors from Her2-dependent inducible spontaneous breast tumors; assay: Drug response assay with propagated Her2-dependent primary breast tumors; assay type: in vivo, mouse; settings: 15 or 30 mg/kg, three doses at 5-day intervals, one week after last dosing
Description: From each primary tumor, about 0.1 million cells/site were injected sub-cutaneously into 30 sites on immunocompromised mice, which were then fed with doxycycline water. Each mouse received two injections, one on each side of its back (subcutaneous). Thus, one primary tumor was expanded into 30 propagated tumors onto 15 mice, each of the mice developing two tumors on its back. Out of these thirty tumors, 10 tumor-bearing mice were treated with vehicle (5 parts Tween-80, 5 parts absolute ethyl alcohol, 90 parts 5% dextrose), another 10 tumor bearing-mice were treated with 15 mg/kg docetaxel (Biochemika, cat. No. 01885), and the remaining 10 tumor-bearing mice were treated with 30 mg/kg docetaxel (which was already determined to be near MTD for this drug). In total, five primary tumors were expanded to 150 tumors in 75 animals.
When the tumors reached approximately 5 mm^3 in size, the treatments were begun. The animals were given three doses with 5-day intervals. The experiment was terminated one week after the final dosing. Among propagated tumors derived from any given primary tumor, uniformity in terms of latency, growth rate and drug response was expected (intra-tumoral uniformity). In contrast, among propagated tumors derived from different primary tumors variation in terms of growth rate, latency and drug response was expected (inter-tumoral variation). […]

[2] = Maximum tolerated dose (previously determined); settings: mouse, in vivo; already determined to be near MTD for this drug

CC(=O)O[C@@]12CO[C@@H]1C[C@H](O)[C@@]1(C)C(=O)[C@H](O)C3=C(C)[C@@H](OC(=O)[C@H](O)[C@@H](NC(=O)OC(C)(C)C)c4ccccc4)C[C@@](O)([C@@H](OC(=O)c4ccccc4)[C@H]21)C3(C)C [docetaxel]
drug response (tumor size vs vehicle) ([1]; propagated tumors from one of the five primary tumors): significant reduction in tumor growth | drug response (tumor size vs vehicle) ([1]; propagated tumors from the remaining four of five primary tumors): did not show any effect | MTD [2]: ~30 mg/kg
